Measured values from patent US9751837B2, “Kinase inhibitors” (RESPIVERT LIMITED, priority 2014, dated 2017).
Values after ≈ are worked out from the molar mass of the structure shown.

Columns and labels:
Jurkat cells = experiment: Cell cytotoxicity assay (r); format: cell-based, human; conditions: 24 hours
Procedure: 1×10^5 Jurkat cells (immortalised human T lymphocytes) are added to the appropriate number of wells of a 96 well plate in 100 μL of media (RPMI supplemented with 10% foetal bovine serum). 1 μL of DMSO control (final concentration 1.0% v/v) or test compound (final concentration 20, 5 or 1 μg/mL) is added to the wells and incubated at 37° C., 5% CO2. After 24 hours, the plate is centrifuged at 1200 rpm for 3 minutes and the supernatant discarded. Cells are then resuspended in 150 μL (final concentration 7.5 μg/mL) of propidium iodide (PI) in PBS and incubated at 37° C., 5% CO2 for 15 minutes. After 15 minutes, cells are analysed by flow cytometry (BD accuri) using the FL3 window. The % viability is calculated as the % of cells that are PI negative in the test wells normalised to the DMSO control.

[1] = Solubility in fasted-state simulated colonic fluid (FaSSCoF) at pH 6.5; format: physicochemical; conditions: 25 °C, pH 6.5, fassgf or other biorelevant, thermodynamic from solid
Method in brief: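 Compounds were suspended at up to 2-10 mg/mL in pH 6.5 Tris/maleate FaSSCoF containing a five-bile-acid mixture, phosphatidylcholine, palmitic acid and BSA. After 24 h equilibration at 25° C the suspension was filtered and the filtrate quantified by HPLC peak area against a standard.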

[2] = pH 6.5 FaSSCoF Solubility (mg/mL) Run 1
[3] = pH 6.5 FaSSCoF Solubility (mg/mL) Run 2

COc1cc(Nc2cc(Oc3ccc(NC(=O)Nc4cc(C(C)(C)C)cc(NS(C)(=O)=O)c4OC)c4ccccc34)ccn2)ccc1C(=O)N(C)CCN1CCN(C)CC1 [17(bh), 4-((4-((4-(3-(5-(tert-Butyl)-2-methoxy-3-(methylsulfonamido)phenyl)ureido)naphthalen-1-yl)oxy)pyridin-2-yl)amino)-2-methoxy-N-methyl-N-(2-(4-methylpiperazin-1-yl)ethyl)benzamide]
% Viability at 20 μg/mL (Jurkat cells): 0.6%
solubility thermodynamic at 24 h [1, 2]: 16 µg/mL (≈ 19.1 µM)
solubility thermodynamic at 24 h [1, 3]: 19 µg/mL (≈ 22.6 µM)

COc1cc(Nc2cc(Oc3ccc(NC(=O)Nc4cc(C(C)(C)C)cc(NS(C)(=O)=O)c4OC)c4ccccc34)ccn2)ccc1C(=O)NC(C)CN1CCN(C)CC1 (stereo not drawn) [17(bl), 4-((4-((4-(3-(5-(tert-Butyl)-2-methoxy-3-(methylsulfonamido)phenyl)ureido)naphthalen-1-yl)oxy)pyridin-2-yl)amino)-2-methoxy-N-(1-(4-methylpiperazin-1-yl)propan-2-yl)benzamide]
% Viability at 5 μg/mL (Jurkat cells): 0.2%
% Viability at 20 μg/mL (Jurkat cells): 0.5%
solubility thermodynamic at 24 h [1, 2]: 16 µg/mL (≈ 19.1 µM)
solubility thermodynamic at 24 h [1, 3]: 17 µg/mL (≈ 20.3 µM)

COc1cc(Nc2cc(Oc3ccc(NC(=O)Nc4cc(C(C)(C)C)cc(NS(C)(=O)=O)c4OC)c4ccccc34)ccn2)ccc1C(=O)NCCOCCO [17(bm), 4-((4-((4-(3-(5-(tert-Butyl)-2-methoxy-3-(methylsulfonamido)phenyl)ureido)naphthalen-1-yl)oxy)pyridin-2-yl)amino)-N-(2-(2-hydroxyethoxy)ethyl)-2-methoxybenzamide]
% Viability at 5 μg/mL (Jurkat cells): 0.2%
% Viability at 20 μg/mL (Jurkat cells): 0.5%
solubility thermodynamic at 24 h [1, 2]: 5 µg/mL (≈ 6.35 µM)
solubility thermodynamic at 24 h [1, 3]: 5 µg/mL (≈ 6.35 µM)

COc1cc(Nc2cc(Oc3ccc(NC(=O)Nc4cc(NS(C)(=O)=O)cc(C(C)(C)C)c4)c4ccccc34)ccn2)ccc1C(=O)NCCN1CCN(C)CC1 [17(bo), 4-((4-((4-(3-(3-(tert-Butyl)-5-(methylsulfonamido)phenyl)ureido)naphthalen-1-yl)oxy)pyridin-2-yl)amino)-2-methoxy-N-(2-(4-methylpiperazin-1-yl)ethyl)benzamide]
% Viability at 20 μg/mL (Jurkat cells): 14.0%
solubility thermodynamic at 24 h [1, 2]: 35 µg/mL (≈ 44 µM)
solubility thermodynamic at 24 h [1, 3]: 33 µg/mL (≈ 41.5 µM)

COc1cc(Nc2cc(Oc3ccc(NC(=O)Nc4cc(NS(C)(=O)=O)cc(C(C)(C)C)c4)c4ccccc34)ccn2)ccc1C(=O)NCCCN1CCN(C)CC1 [17(bp), 4-((4-((4-(3-(3-(tert-Butyl)-5-(methylsulfonamido)phenyl)ureido)naphthalen-1-yl)oxy)pyridin-2-yl)amino)-2-methoxy-N-(3-(4-methylpiperazn-1-yl)propyl)benzamide]
% Viability at 5 μg/mL (Jurkat cells): 41.0%
% Viability at 20 μg/mL (Jurkat cells): 2.0%
solubility thermodynamic at 24 h [1, 2]: 23 µg/mL (≈ 28.4 µM)
solubility thermodynamic at 24 h [1, 3]: 24 µg/mL (≈ 29.7 µM)

COc1c(NC(=O)Nc2ccc(Oc3ccnc(Nc4ccc(C(=O)NCCN5CCN(C)CC5)c(N(C)C)c4)c3)c3ccccc23)cc(C(C)(C)C)cc1NS(C)(=O)=O [17(bq), 4-((4-((4-(3-(5-(tert-Butyl)-2-methoxy-3-(methylsulfonamido)phenyl)ureido)naphthalen-1-yl)oxy)pyridin-2-yl)amino)-2-(dimethylamino)-N-(2-(4-methylpiperazin-1-yl)ethyl)benzamide]
% Viability at 20 μg/mL (Jurkat cells): 2.0%
solubility thermodynamic at 24 h [1, 2]: 9 µg/mL (≈ 10.7 µM)
solubility thermodynamic at 24 h [1, 3]: 9 µg/mL (≈ 10.7 µM)

COc1cc(Nc2cc(Oc3ccc(NC(=O)Nc4cc(C(C)(C)C)cc(NS(C)(=O)=O)c4OC)c4ccccc34)ccn2)cc(OC)c1C(=O)NCC1CCN(C)CC1 [17(ca), 4-((4-((4-(3-(5-(tert-Butyl)-2-methoxy-3-(methylsulfonamido)phenyl)ureido)naphthalen-1-yl)oxy)pyridin-2-yl)amino)-2,6-dimethoxy-N-((1-methylpiperidin-4-yl)methyl)benzamide]
% Viability at 5 μg/mL (Jurkat cells): 94.0%
solubility thermodynamic at 24 h [1, 2]: 2 µg/mL (≈ 2.38 µM)
solubility thermodynamic at 24 h [1, 3]: 2 µg/mL (≈ 2.38 µM)

COc1cc(Nc2cc(Oc3ccc(NC(=O)Nc4cc(C(C)(C)C)cc(NS(C)(=O)=O)c4OC)c4ccccc34)ccn2)ccc1C(=O)NCCN1CCN(C(=O)CC[C@H](N)C(=O)O)CC1 [17(cl), (S)-2-Amino-5-(4-(2-(4-((4-((4-(3-(5-(tert-butyl)-2-methoxy-3-(methylsulfonamido)-phenyl)ureido)naphthalen-1-yl)oxy)pyridin-2-yl)amino)-2-methoxybenzamido)ethyl)piperazin-1-yl)-5-oxopentanoic acid]
% Viability at 5 μg/mL (Jurkat cells): 94.0%
solubility thermodynamic at 24 h [1, 2]: 9 µg/mL (≈ 9.57 µM)
solubility thermodynamic at 24 h [1, 3]: 6 µg/mL (≈ 6.38 µM)

COc1cc(Nc2cc(Oc3ccc(NC(=O)Nc4cc(C(C)(C)C)cc(NS(C)(=O)=O)c4OC)c4ccccc34)ccn2)ccc1C(=O)NC(CO)(CO)CO [17(cm), 4-((4-((4-(3-(5-(tert-Butyl)-2-methoxy-3-(methylsulfonamido)phenyl)ureido)naphthalen-1-yl)oxy)pyridin-2-yl)amino)-N-(1,3-dihydroxy-2-(hydroxymethyl)propan-2-yl)-2-methoxybenzamide]
% Viability at 5 μg/mL (Jurkat cells): 77.0%
solubility thermodynamic at 24 h [1, 2]: 8 µg/mL (≈ 9.96 µM)
solubility thermodynamic at 24 h [1, 3]: 9 µg/mL (≈ 11.2 µM)

COc1cc(Nc2cc(Oc3ccc(NC(=O)Nc4cc(C(C)(C)C)cc(NS(C)(=O)=O)c4OC)c4ccccc34)ccn2)ccc1-c1nn[nH]n1 [Example 24, N-(5-(tert-Butyl)-2-methoxy-3-(3-(4-((2-((3-methoxy-4-(2H-tetrazol-5-yl)phenyl)amino)pyridin-4-yl)oxy)naphthalen-1-yl)ureido)phenyl)methanesulfonamide]
% Viability at 20 μg/mL (Jurkat cells): 9.7%
solubility thermodynamic at 24 h [1, 2]: 12 µg/mL (≈ 16.6 µM)
solubility thermodynamic at 24 h [1, 3]: 10 µg/mL (≈ 13.8 µM)

COc1cc(Nc2nccc(Oc3ccc(NC(=O)Nc4cc(C(C)(C)C)cc(NS(C)(=O)=O)c4OC)c4ccccc34)n2)ccc1S(N)(=O)=O [Example 28, 4-((4-((4-(3-(5-(tert-Butyl)-2-methoxy-3-(methylsulfonamido)phenyl)ureido)naphthalen-1-yl)oxy)pyrimidin-2-yl)amino)-2-methoxybenzenesulfonamide]
% Viability at 1 μg/mL (Jurkat cells; 1 μg/mL): 100.0%
solubility thermodynamic at 24 h [1, 2]: < 1 µg/mL
solubility thermodynamic at 24 h [1, 3]: < 1 µg/mL

COc1c(NC(=O)Nc2ccc(Oc3ccnc(Nc4ccc(C(=O)NCCCN5CCOCC5)c(O)c4)c3)c3ccccc23)cc(C(C)(C)C)cc1NS(C)(=O)=O [Example 29, 4-((4-((4-(3-(5-(tert-Butyl)-2-methoxy-3-(methylsulfonamido)phenyl)ureido)naphthalen-1-yl)oxy)pyridin-2-yl)amino)-2-hydroxy-N-(3-morpholinopropyl)benzamide]
% Viability at 20 μg/mL (Jurkat cells): 2.0%
solubility thermodynamic at 24 h [1, 2]: 11 µg/mL (≈ 13.5 µM)
solubility thermodynamic at 24 h [1, 3]: 9 µg/mL (≈ 11.1 µM)

COc1cc(Nc2cc(Oc3ccc(NC(=O)Nc4cc(C(C)(C)C)cc(NS(C)(=O)=O)c4OC)c4ccccc34)ccn2)ccc1-n1ccccc1=O [Example 31, N-(5-(tert-Butyl)-2-methoxy-3-(3-(4-((2-((3-methoxy-4-(2-oxopyridin-1(2H)-yl)phenyl)amino)-pyridin-4-yl)oxy)naphthalen-1-yl)ureido)phenyl)methanesulfonamide]
% Viability at 20 μg/mL (Jurkat cells): 99.0%
solubility thermodynamic at 24 h [1, 2]: 3 µg/mL (≈ 4.01 µM)
solubility thermodynamic at 24 h [1, 3]: 3 µg/mL (≈ 4.01 µM)
